Reference: publication PMC7961380, “A Systematic Study of the In Vitro Pharmacokinetics and Estimated Human In Vivo Clearance of Indole and Indazole-3-Carboxamide Synthetic Cannabinoid Receptor Agonists Detected on the Illicit Drug Market” (Molecules, 2021)
Read-outs that look alike come from different tables or passages of the source.

Experiments:
[1] = Plasma protein binding by equilibrium dialysis; type: in vitro ADME, human; conditions: 37 °C; for fraction unbound at 5 h, 10 µg mL^−1: human, pooled human plasma, pH 7.4, equilibrium dialysis 5 h
Method: Plasma protein binding was assessed by equilibrium dialysis in a 96-well dialysis block (HTDialysis, Ledyard, CT, USA). Dialysis membranes (12–14 kDa) were soaked in deionised water for at least 60 min. Membranes were soaked overnight at 4 °C in ethanol:water 20:80% v/v and then rinsed with deionised water immediately prior to use. […] Spiked plasma (150 µL) was dialysed against isotonic phosphate buffer (pH 7.4) (150 µL) for 5 h at 37 °C with shaking at 100 rpm. Thermal degradation controls for each test compound were kept at 37 °C and 4 °C. Blank control plasma and buffer were included in the incubation. Following incubation, dialysed plasma samples and thermal degradation controls (50 µL) were added to drug-free buffer (50 µL), and dialysed buffer samples (50 µL) were added to drug-free plasma (50 µL). […] Supernatant (150 µL) was added to 50 µL deionised water and samples were analysed by UPLC-MS/MS as described above. Dialysed buffer from each well was tested for protein contamination using BCA protein assay reagent to determine whether membranes had been compromised.
Bu = Analyte/IS ratio determined in buffer side (2) Fraction unbound, fu=(100−% bound)/100

[2] = Metabolic stability, pooled human liver microsome incubations; conditions: for Predicted In Vivo Hepatic Clearance, CLH: from pHLM CLint, well-stirred model with plasma fu, Q 21 mL min^−1 kg^−1; for CLint scaled at 0.5 µM: pH 7.4, Intrinsic clearance
Method: Total incubation volume was 500 µL. Procedure: Test compound working solutions (50 µM in potassium phosphate buffer (pH 7.4)) were prepared (<1% DMSO). pHLM were thawed and diluted in potassium phosphate buffer (pH 7.4). […] Reactions were quenched in 200 µL ACN spiked with donepezil (IS, 50 ng mL^−1). […] Samples were analysed by UPLC-MS/MS in a 96 deep-well 2 mL plate. Each SCRA was incubated at least in triplicate but additional incubations were carried out across a number of analytical batches, giving greater replication and a greater understanding of system variability. Microsomal scaling factors used for human liver microsome incubations in the literature vary. Intrinsic clearance and predicted in vivo clearance rates calculated using alternative scaling factors found in the literature is provided in Section S6 of the supplementary information, to aid comparison of data between publications.
Equations used for in vitro intrinsic clearance calculation and human in vivo clearance […]
The equations used for in vitro intrinsic clearance calculation and human in vivo clearance estimation […]
Microsomal clearance (HLM incubations) in mL min-1 mg microsomal protein-1 [3]
Intrinsic clearance (whole-liver dimensions) (HLM incubations) in mL min-1 kg-1 [3] CL = k x V x [Liver](g) x SF Eqn. 7 […]
mg g microsomal protein-1 [7]
Intrinsic clearance (whole-liver dimensions) (HHep incubations) in mL min-1 kg-1 [4] CL = k x V x hepatocytes/g liver x [Liver](g) Eqn. 8 […]
Where: hepatocytes/g liver = 107x10^6 cells/g liver
Hepatic clearance in mL min-1 kg-1 [3]
[…] Eqn. 9
Where: Q = hepatic blood flow, 21 mL min-1 kg-1 [9]; fu = fraction unbound (plasma); CLint = […]
Estimated human hepatic extraction ratio [5]
Intrinsic clearance data – pooled human liver microsome incubations […]
table S4-28. Intrinsic clearance and predicted in vivo data calculated using alternative microsomal scaling factors found in the literature – 32 [10] and 45 [11] mg microsomal protein per gram liver – are provided in tables S29 and S30, respectively.

[3] = Short-term plasma stability with and without esterase inhibitors; conditions: 3 h, 37 °C; for remaining at 3 h, 5 µM: human, pH 7.4, Parent Compound Remaining (%)
[4] = tested on: pooled human cryopreserved hepatocytes (pHHeps); assay: Metabolic stability, pooled human cryopreserved hepatocyte incubations; conditions: for Predicted In Vivo Hepatic Clearance, CLH: from pHHeps CLint, well-stirred model with plasma fu, Q 21 mL min^−1 kg^−1; for T1/2: pHHeps 0.25 million cells mL^−1, 0.5 µM, 37 °C, n ≥ 3 ± SD; for Intrinsic clearance, CLint: alternative hepatocyte cell density 99x10^6 hepatocytes per gram liver
[5] = pHLM 0.5 mg mL^−1, 0.5 µM, NADPH, 37 °C, n ≥ 3 ± SD
[6] = pHLM, alternative microsomal scaling factor 32 mg microsomal protein per gram liver
[7] = pHLM, alternative microsomal scaling factor 45 mg microsomal protein per gram liver
[8] = pHLM, scaling factor 32 mg microsomal protein per gram liver
[9] = pHLM, scaling factor 45 mg microsomal protein per gram liver
[10] = pH 7.4, BNPP and PMSF 500 µM each
[11] = pHHeps, 99x10^6 hepatocytes per gram liver
[12] = equilibrium dialysis 5 h, 10 µg mL^−1

SMILES: COC(=O)[C@H](NC(=O)c1nn(CCCCF)c2ccccc12)C(C)(C)C [(R)-4F-MDMB-BINACA (4), methyl 2-[1-(4-fluorobutyl)-1H-indazole-3-carboxamido]-3,3-dimethylbutanoate]
- fraction unbound at 5 h, 10 µg mL^−1 ([1]; 10 µg mL^−1, read-out: PPB (%) (converted)): 0.111
- Predicted In Vivo Hepatic Clearance, CLH [2]: 8.55 ± 0.24 mL/min/kg
- Hepatic extraction ratio, EH ([2]; from pHLM incubations): 0.41 ± 0.012
- T1/2 [2, 5]: 14 ± 0.68 min
- % parent compound remaining, Average ([2]; pHLM, 3 min): 78.8%
- % parent compound remaining, Average ([2]; pHLM, 6 min): 72.8%
- % parent compound remaining, Average ([2]; pHLM, 9 min): 54.1%
- % parent compound remaining, Average ([2]; pHLM, 15 min): 48.4%
- % parent compound remaining, Average ([2]; pHLM, 30 min): 26.6%
- Intrinsic clearance, CLint [2, 6]: 79 mL/min/kg
- Intrinsic clearance, CLint [2, 7]: 112 mL/min/kg
- Microsomal Intrinsic Clearance, CLint micr ([2]; pHLM, n ≥ 3 ± SD): 0.096 ± 0.005 mL min^−1 mg Microsomal Protein^−1
- Hepatic extraction ratio, EH [2, 8]: 0.30 ± 0.010
- Predicted in vivo hepatic clearance, CLH [2, 8]: 6.20 mL/min/kg
- Hepatic extraction ratio, EH [2, 9]: 0.37 ± 0.011
- Predicted in vivo hepatic clearance, CLH [2, 9]: 7.78 mL/min/kg
- Parent Compound Remaining (%), Esterase Inhibitors [3, 10]: 96.0 ± 1.7%
- Parent Compound Remaining (%), No Esterase Inhibitors ([3]; pH 7.4, pooled human plasma): 91.1 ± 6.8%
- Predicted In Vivo Hepatic Clearance, CLH [4]: 8.77 ± 1.43 mL/min/kg
- Hepatic extraction ratio, EH ([4]; from pHHeps incubations): 0.42 ± 0.068
- T1/2 [4]: 58 ± 17.2 min
- Hepatic extraction ratio, EH [4, 11]: 0.40 ± 0.067
- Predicted in vivo hepatic clearance, CLH [4, 11]: 8.38 ± 1.40 mL/min/kg
- % parent compound remaining, Average ([4]; pHHeps, 3 min): 89.2%
- % parent compound remaining, Average ([4]; pHHeps, 6 min): 84.6%
- % parent compound remaining, Average ([4]; pHHeps, 9 min): 91.0%
- % parent compound remaining, Average ([4]; pHHeps, 15 min): 82.6%
- % parent compound remaining, Average ([4]; pHHeps, 30 min): 65.7%
- % parent compound remaining, Average ([4]; pHHeps, 45 min): 48.5%
- % parent compound remaining, Average ([4]; pHHeps, 60 min): 37.9%
- Intrinsic clearance, CLint ([4]; pHHeps): 128 ± 34.6 mL/min/kg

SMILES: C=CCCCn1cc(C(=O)N[C@@H](C(=O)OC)C(C)(C)C)c2ccccc21 [(R)-MDMB-4en-PICA (12), methyl 3,3-dimethyl-2-[1-(pent-4-en-1-yl)-1H-indole-3-carboxamido]butanoate]
- PPB (%) [1, 12]: 94.7 ± 1.11%
- Fraction Unbound (fu) ([1]; equilibrium dialysis 5 h, plasma): 0.053 ± 0.0111
- Predicted In Vivo Hepatic Clearance, CLH [2]: 9.81 ± 0.75 mL/min/kg
- Hepatic extraction ratio, EH ([2]; from pHLM incubations): 0.47 ± 0.036
- T1/2 [2, 5]: 5.4 ± 0.74 min
- % parent compound remaining, Average ([2]; pHLM, 3 min): 67.7%
- % parent compound remaining, Average ([2]; pHLM, 6 min): 47.7%
- % parent compound remaining, Average ([2]; pHLM, 9 min): 31.7%
- % parent compound remaining, Average ([2]; pHLM, 15 min): 13.8%
- % parent compound remaining, Average ([2]; pHLM, 30 min): 1.7%
- Intrinsic clearance, CLint [2, 6]: 213 mL/min/kg
- Intrinsic clearance, CLint [2, 7]: 300 mL/min/kg
- Microsomal Intrinsic Clearance, CLint micr ([2]; pHLM, n ≥ 3 ± SD): 0.260 ± 0.040 mL min^−1 mg Microsomal Protein^−1
- Hepatic extraction ratio, EH [2, 8]: 0.35 ± 0.033
- Predicted in vivo hepatic clearance, CLH [2, 8]: 7.32 ± 0.70 mL/min/kg
- Hepatic extraction ratio, EH [2, 9]: 0.43 ± 0.035
- Predicted in vivo hepatic clearance, CLH [2, 9]: 9.01 ± 0.74 mL/min/kg
- Parent Compound Remaining (%), Esterase Inhibitors [3, 10]: 87.7 ± 11.0%
- Parent Compound Remaining (%), No Esterase Inhibitors ([3]; pH 7.4, pooled human plasma): 90.3 ± 5.4%
- Predicted In Vivo Hepatic Clearance, CLH [4]: 6.42 ± 0.62 mL/min/kg
- Hepatic extraction ratio, EH ([4]; from pHHeps incubations): 0.31 ± 0.029
- T1/2 [4]: 44 ± 6.3 min
- Hepatic extraction ratio, EH [4, 11]: 0.29 ± 0.028
- Predicted in vivo hepatic clearance, CLH [4, 11]: 6.08 ± 0.60 mL/min/kg
- % parent compound remaining, Average ([4]; pHHeps, 3 min): 90.1%
- % parent compound remaining, Average ([4]; pHHeps, 6 min): 81.5%
- % parent compound remaining, Average ([4]; pHHeps, 9 min): 83.7%
- % parent compound remaining, Average ([4]; pHHeps, 15 min): 79.3%
- % parent compound remaining, Average ([4]; pHHeps, 30 min): 61.6%
- % parent compound remaining, Average ([4]; pHHeps, 45 min): 46.4%
- % parent compound remaining, Average ([4]; pHHeps, 60 min): 40.6%
- Intrinsic clearance, CLint ([4]; pHHeps): 162 ± 22.16 mL/min/kg

SMILES: COC(=O)[C@@H](NC(=O)c1nn(CCCCF)c2ccccc12)C(C)(C)C [(S)-4F-MDMB-BINACA (4), methyl 2-[1-(4-fluorobutyl)-1H-indazole-3-carboxamido]-3,3-dimethylbutanoate]
- PPB (%) [1, 12]: 93.9 ± 0.28%
- fraction unbound at 5 h, 10 µg mL^−1 ([1]; plasma, read-out: Fraction Unbound (fu)): 0.061 ± 0.0028
- Predicted In Vivo Hepatic Clearance, CLH [2]: 7.51 ± 0.88 mL/min/kg
- Hepatic extraction ratio, EH ([2]; from pHLM incubations): 0.36 ± 0.042
- CLint scaled at 0.5 µM ([2]; human, microsomes, pHLM, alternative microsomal scaling factor 32 mg microsomal protein per gram liver): 118 mL/min/kg
- CLint scaled at 0.5 µM ([2]; human, microsomes, pHLM, alternative microsomal scaling factor 45 mg microsomal protein per gram liver): 165 mL/min/kg
- half-life at 0.5 µM ([2]; human, microsomes, pH 7.4, T1/2 (min), pHLM 0.5 mg mL^−1, 0.5 µM, NADPH, 37 °C, n ≥ 3 ± SD): 9.9 ± 1.9 min
- % parent compound remaining, Average ([2]; pHLM, 3 min): 74.9%
- % parent compound remaining, Average ([2]; pHLM, 6 min): 63.6%
- % parent compound remaining, Average ([2]; pHLM, 9 min): 50.4%
- % parent compound remaining, Average ([2]; pHLM, 15 min): 32.7%
- % parent compound remaining, Average ([2]; pHLM, 30 min): 17.0%
- Microsomal Intrinsic Clearance, CLint micr ([2]; pHLM, n ≥ 3 ± SD): 0.143 ± 0.025 mL min^−1 mg Microsomal Protein^−1
- Hepatic extraction ratio, EH [2, 8]: 0.25 ± 0.034
- Predicted in vivo hepatic clearance, CLH [2, 8]: 5.33 mL/min/kg
- Predicted in vivo hepatic clearance, CLH [2, 9]: 6.78 mL/min/kg
- remaining at 3 h, 5 µM ([3]; Esterase Inhibitors, pH 7.4, BNPP and PMSF 500 µM each): 96 ± 2.9%
- remaining at 3 h, 5 µM ([3]; plasma, No Esterase Inhibitors, pH 7.4, pooled human plasma): 93.1 ± 5.1%
- Predicted In Vivo Hepatic Clearance, CLH [4]: 12.08 ± 0.23 mL/min/kg
- Hepatic extraction ratio, EH ([4]; from pHHeps incubations): 0.58 ± 0.011
- T1/2 [4]: 16 ± 0.74 min
- Hepatic extraction ratio, EH [4, 11]: 0.56 ± 0.011
- Predicted in vivo hepatic clearance, CLH [4, 11]: 11.68 ± 0.24 mL/min/kg
- % parent compound remaining, Average ([4]; pHHeps, 3 min): 82.3%
- % parent compound remaining, Average ([4]; pHHeps, 6 min): 73.7%
- % parent compound remaining, Average ([4]; pHHeps, 9 min): 69.2%
- % parent compound remaining, Average ([4]; pHHeps, 15 min): 53.9%
- % parent compound remaining, Average ([4]; pHHeps, 30 min): 25.8%
- % parent compound remaining, Average ([4]; pHHeps, 45 min): 12.5%
- % parent compound remaining, Average ([4]; pHHeps, 60 min): 6.2%
- Intrinsic clearance, CLint ([4]; pHHeps): 432 ± 20.0 mL/min/kg
